Assay results reported in patent US20060280725A1, “Compositions and methods of treating and diagnosing hepatoma” (priority 2003, published 2006).

How the values were obtained:
ASCT2/ATB^0 RNA = assay: Northern blot analysis of ASCT2/ATB0 silencing in six human liver cancer cell lines; format: cell-based; conditions: 50 nM
From the text: FIG. 17. […] Panel B are the phospho-imager quantification results of the blot shown in panel A (normalized to beta actin mRNA levels).
RNA was extracted from six (6) human liver cancer cell lines and subject to northern blot analysis using ASCT2/ATB^0 DNA as a probe. Actin RNA was probed as a baseline control. […] Those autoradiograms were subjected to phospho-imager quantitative analysis and normalized to actin RNA expression (FIG. 17, panel B). The designation “L” refers to Liopfectamine™ 200 alone, and “S” refers to Liopfectamine™ 200 plus siRNA at 50 nM.

hepatoma cells [1] = assay: Glutamine transport after siRNA1 treatment; format: cell-based, human
Protocol: (§1) FIG. 16. […] Panel C are photos from the experiment of panel B.
(§2) The physiological effects of downregulating ASCT2 expression by administration of siRNA1 in hepatoma cells were studied. Glutamine transport, which was measured as nanomoles of glutamine per milligram of total protein per 30s, was examined at 24 hours and at 48 hours in Lipofectamine treated cells and Lipofectamine+50 nM siRNA1. […] Cell counts were made at 48 hours of hepatoma cultures, each of which were started with the same number of viable cells, receiving either Lipofectamine™ 200 alone or Lipofectamine™ 200 plus siRNA1. After 48 hours, a 40% reduction in the number of cells that had received isRNA1 (which comprises SEQ ID NO:3) relative to control cells was observed.

hepatoma cells [2] = assay: Cell counts after siRNA1 treatment; format: cell-based, human
Protocol: as §1, §2

ASCT2 mRNA = assay: Northern blot analysis of ASCT2 mRNA after siRNA transfection; format: cell-based, human
Protocol: FIG. 15. […] B is the phospho-imager quantification of the bands in A. C is the concentration curve for siRNA1, showing that 50 nM is sufficient for maximum silencing of ASCT2 expression.
siRNAs that are specific to ASCT2 were designed using several known algorithms and then checked for specificity. Four (4) siRNAs, i.e., siRNA1 (which comprises SEQ ID NO:3), siRNA2 (which comprises SEQ ID NO:4), siRNA3 (which comprises SEQ ID NO:5), and siRNA4 (which comprises SEQ ID NO:6), were synthesized. SK-Hep cells were transfected with 50 nM concentration of any one of siRNA1, 2, 3 or 4 using Lipofectamine™ 2000 (Invitrogen™ life technologies) based on the protocols set forth in Gitlin, L., Karelsky, S., and Andino, R. (2002), Nature 418: 430-434; Yu, J. Y., DeRuiter, S. L., and Turner, D. L. (2002), Proc. Nat. Acad. Sci. USA 99:6047-6052; and “Transfecting siRNA into Mammalian Cells Using Lipofectamine™ 2000,” Form No. 18057N, Doc. Rev. 102802 by Invitrogen Corporation (2002), which are herein incorporated by reference. At 24 hours and at 48 hours, RNAs were extracted from the transfected cells and the expression of ASCT2 was examined by Northern blot analysis (see FIG. 15A).
Hepatoma cells were then treated with Lipofectamine™ 200 without siRNA1, with 12.5 nM, 25 nM, 50 nM or 100 nM siRNA1.

With “siRNA1: siRNA specific to ASCT2, which comprises SEQ ID NO:3 (AGGAGGTGCTCGATTCGTT; listed as DNA, chemistry not given here; listed as Homo sapiens)” the “relative ASCT2/ATB^0 expression (normalized to actin RNA)” value (ASCT2/ATB^0 RNA) was “significant reduction”, the “reduction in glutamine transport relative to controls” value (hepatoma cells [1]; 50 nM, 24 and 48 hours, vs Lipofectamine alone, p<0.01) was “greater than 50%” and the “ASCT2 function (glutamine uptake)” value (hepatoma cells [1]; FIG. 16 panel A) was “substantially decreases”. The “cellular loss compared to transfection reagent alone” value (hepatoma cells [2]; FIG. 16 panel B) was “leads to cellular loss (death)”, the “reduction in the number of cells relative to control cells” value (hepatoma cells [2]; after 48 hours, vs Lipofectamine alone) was 40% and the “relative effectiveness at reducing ASCT2 expression (mRNA relative to actin)” value (ASCT2 mRNA; SK-Hep, 50 nM siRNA, 24 and 48 hours) was “most effective of the four siRNAs”. The “concentration sufficient for maximum silencing of ASCT2 expression” value (ASCT2 mRNA; tested 12.5, 25, 50, 100 nM) was 50 nM.
